Data on 23 molecules can be found in patent publication US9624235B2, “Compounds and methods for inhibition of AP endonuclease-1/redox factor-1 (HAPE1) activity” (University of Pittsburgh—Of the Commonwealth System of …, priority 2012, dated 2017).

The target in test [1] is APE-1 activity in T98G cell nuclear lysates (Homo sapiens (Human), UniProt P27695). In words: Molecular beacon assay in T98G cell nuclear extracts. In kind it is biochemical. As to the method:
Isolation and Assay of APE-1 Protein from Nuclear Extracts of Glioma Cells. Human glioblastoma cells (T98G) were maintained in growth medium, i.e., Eagle's Minimum Essential Medium (EMEM) with 10% fetal bovine serum (FBS), […] gentamycin, 1×MEM non-essential amino acids and 1 mM sodium pyruvate. Cells were harvested by Trypsin-EDTA treatment, washed with 1×PBS and nuclear proteins isolated using the CelLytic NuCLEAR Extraction kit (Sigma-Aldrich) as per manufacturer's instructions. Isolated nuclear proteins were estimated colorimetrically (BCA protein assay) and stored at −80° C. (long term) or at −20° C. during regular use. To assay APE-1 activity in T98G cells, nuclear extracts were serially diluted in 10 mM HEPES, 50 mM KCl, 1 mM DTT, 20% (v/v) glycerol and the activities measured via the molecular beacon assay (as described above). […] EC2 nM of nuclear extracts was incubated with 2 to 500 nM hairpin DNA substrate and the V0 measured for each value of [S]. Finally, the apparent KM* was deduced using the software algorithm in Prism (as described previously), and the KM* was used to determine the apparent Ki*. Inhibition of EC2 nM APE-1 activity by the inhibitors was assayed via the molecular beacon assay (described above).
Inhibition of APE-1 Activity in Nuclear Lysates. The ability of 1-5 and 8 to block APE-1 endonuclease activity in a complex mixture of proteins from T98G cell nuclear lysates was tested using the molecular beacon assay. The APE-1 activity in the lysates was standardized to give ˜90% turnover of 25 nM substrate in 10 min.

Test [2] relates to T98G cells. In words: Potentiation of MeLex cytotoxicity, long term (10 d) CyQUANT assay. The format is cell-based, human. As to the method: (§1) Cytotoxic Potentiation of Various DNA Damaging Agents. T98G cells maintained in growth medium were resuspended in fresh growth medium and seeded into 96-well plates at 2000 cells/well (short term cytotoxicity) or 100 cells/well (long term cytotoxicity) as described in the previous section. After 24 h, the cells were treated with serial dilutions of various DNA damaging drugs in absence or presence of APE-1 inhibitors. At the end of the treatment period, cell survival was assayed using CellTiter 96 AQueous or CyQUANT kits for the short- and long-term studies respectively.
(§2) Toxicity. It was assumed that inhibition of APE-1 activity would be lead to toxicity since genetic deletion of the protein is lethal to cells. […] The toxicities were also determined in combination with the DNA minor groove methylating agent, MeLex. MeLex efficiently and selectively generates N3-methyladenine, which is converted into an abasic site by a BER glycosylase and/or hydrolytic depurination. The T98G cell line is relatively resistant to DNA damaging anticancer agents due to expression of multiple drug resistance proteins and O^6-alkylguanine-DNA alkyltransferase. […] A goal of the development of APE-1 inhibitors is to determine if they can be used to enhance the activity of DNA alkylating agents.

The test system of test [3] is T98G cells. The experiment in a line: Long term (10-day) CyQUANT cytotoxicity assay. The format is cell-based, human. The following applies: long term assay. As to the method:
(§3) Cytotoxic Effects of APE-1 Inhibitors on Cultured Human Glioblastoma (T98G) Cells. Human glioblastoma cells (T98G) were maintained in growth medium as described above. […] The cells were allowed to attach and grow for 24 h, and then treated with serial dilutions of the drug for 72 h. After treatment, viable cells were measured by an MTS assay using the CellTiter 96 AQueous kit (Promega) as per manufacturer's instructions. […] The cells were allowed to attach and grow for 24 h and treated with serial dilutions of the drug for 240 h. After treatment, viable cells were measured using the CyQUANT cell proliferation assay kit (Invitrogen) as per manufacturer's instructions.
as §2

In test [4] the test system is aldehyde reactive sites in genomic DNA from T98G cells. In kind it is cell-based, human.
Experimental: Quantification of Abasic Sites. T98G cells maintained in growth medium, were harvested by Trypsin-EDTA treatment, resuspended in fresh growth medium at a density of 2.5×10^5 cells mL^−1, and 2 mL (5×10^5 cells) of this suspension was seeded into the wells of a sterile 6-well tissue culture plate. Cells were allowed to grow for 24 h, treated with the various compounds for different time points and/or at different concentrations. At the end of each treatment, adherent cells were harvested by trypsin-EDTA treatment and pooled with live and dead cells in culture supernatant. Pooled cells in suspension were pelleted by centrifugation, washed with 1×PBS and genomic DNA was isolated using the DNAzol reagent (Invitrogen). DNA in solution was quantified by UV absorbance (λ260 nm) using a Synergy H1 multiwell plate reader (BioTek, Winooski, Vt.). Abasic sites in purified DNA were then reacted with the biotin-conjugated aldehyde reactive probe (ARP), immobilized onto 96-well ELISA plates, and detected using horseradish peroxidase (HRP)-conjugated streptavidin using a colorimetric substrate as per manufacturer's instructions (Dojindo Molecular Technologies, Rockville, Md.).
The biotin tagged ARS are quantified using an avidin-biotin assay, followed by colorimetric detection with horseradish peroxidase conjugated to avidin.
The target in test [5] is T1, APE-1 (Homo sapiens (Human), UniProt P27695). In words: Molecular beacon assay for APE-1 endonuclease inhibition. In kind it is biochemical. The following applies: molecular beacon assay, endonuclease activity. An excerpt: Screening Assays for APE1 Inhibition—The initial screen was designed to look at the effect of potential inhibitors on APE1 repair kinetics. The approach can be used as a high throughput screen by choosing a specific timepoint to monitor. The screen utilizes a molecular beacon with a tetrahydrofuran (THF) abasic site within the stem region of a DNA hairpin that has a fluorophore on the 5′-terminus and a quencher on the 3′-terminus (FIG. 2a). […] An example of the molecular beacon screen and the excision assay are shown in FIGS. 2b,c and 2d, respectively.
T1 sequence (P27695 whole entry): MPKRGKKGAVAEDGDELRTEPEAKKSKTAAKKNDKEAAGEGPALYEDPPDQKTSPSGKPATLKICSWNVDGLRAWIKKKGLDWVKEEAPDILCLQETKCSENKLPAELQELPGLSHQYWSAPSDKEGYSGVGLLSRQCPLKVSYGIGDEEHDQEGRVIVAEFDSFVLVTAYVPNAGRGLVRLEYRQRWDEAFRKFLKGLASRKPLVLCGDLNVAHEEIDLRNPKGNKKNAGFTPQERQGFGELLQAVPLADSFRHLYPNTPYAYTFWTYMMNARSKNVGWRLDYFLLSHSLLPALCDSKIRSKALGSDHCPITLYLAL
Molecular Beacon Assay for Screening of APE-1 Inhibitors. A fluorescence-based molecular beacon assay to measure APE-1 protein activity and inhibition was performed as described previously with some modifications. Tang et al. Neuro Oncol. 13, 471-486 (2011) APE-1 (2 nM) in 10 mM HEPES (pH 7.8) 0.5 mM MgCl, 100 mM NaCl, 100 mM KCl, 0.0005% (w/v) BSA, was incubated with 20 nM 5′-(F)-CGACTXTTGAATTGACACGCCATGTCGATCAATTCAATAGTCG-(D)-3′ [X=tetrahydrofuran (THF) abasic site modification; F, 6-carboxyfluorescein (6-FAM); and D, DABCYL] that forms a hairpin with a 15 base pair stem and a 13 base loop. The THF modification is a known substrate for APE-1 excision. APE-1 mediated cleavage of the phosphodiester backbone at the THF-abasic site led to release of the 5′ 6-FAM (fluorophore) containing pentanucleotide, disrupting the Förster Resonance Energy Transfer (FRET) mediated quenching of the 6-FAM by DABCYL in the native hairpin oligomer. Since the signal was generated by continuous liberation of the fluorophore-labeled excision fragment, progress of this reaction could be monitored in real-time using a Cary Eclipse fluorescence spectrometer (Varian, Palo Alto, Calif.) or a Synergy H1 multi-well plate reader (BioTek, Winooski, Vt.). Reactions were optimized to yield ˜90% substrate turnover in 10 min, and fluorescence intensities measured every 12 s at 495 nm excitation and 520 nm emission. Data from the first 1-3 min of the assays (linear phase) were used to determine rate of substrate turnover (V0). The Michaelis constant (KM) was deduced experimentally, by incubating 2 nM APE-1 protein with 2-500 nM hairpin DNA substrate and measuring V0 —the experimentally observed V0 were analyzed as a function of substrate concentration [S] via non-linear regression using Prism (v.4; GraphPad Software, Inc., La Jolla, Calif.) and the KM was calculated as per the algorithm in the software package. To assay inhibition, 2 nM APE-1 protein was pre-incubated with 0.05-10.00 μM of the candidate inhibitors at 25° C. for 60 min, before initiating the excision assay by addition of hairpin DNA substrate. V0 was calculated at various concentrations of inhibitors and represented as inverse function of increasing inhibitor concentration [I]. […] All assays were carried out in three independent sets to obtain mean data and standard error of mean.
(§4) Screening for APE-1 Inhibitors. […] In this assay, the DNA hairpin substrate has a 6-FAM fluorophore on the 5′-terminus, a DABACYL fluorescence quencher on the 3′-terminus and a THF abasic site located 6 base pairs from the 5′-terminus in the stem region (FIG. 6). APE-1 activity is monitored as an increase in fluorescence due to the release of the 5′-(6-FAM)-GCACT fragment as a function of time. […] In this assay, substrate turnover was calculated from relative intensities of cleaved vs. intact oligomers and correlated with inhibitor concentration.

Test [6] has as its target T1, APE-1. In words: Gel-based excision assay for APE-1 inhibitors. In kind it is biochemical. As to conditions: APE-1 cleaved fragment vs. full length DNA substrate. As to the method: as §4
The test system of test [7] is T98G cells. In words: Short term (72 h) MTS cytotoxicity assay. In kind it is cell-based, human. As to conditions: 72 h MTS assay. As to the method:
as §3, §2
A general note: Formazan colour is commonly taken as a measure of viable cells.

Test [8] has as its system T98G cells. The experiment in a line: Potentiation of MeLex cytotoxicity, short term (72 h) MTS assay. In kind it is cell-based, human. The following applies: 72 h MTS assay. As to the method: as §1, §2
The mark [9] stands for this setting: read-out: Ki APE-1 endonuclease inhibition.
Setting [10] is: read-out: Ki APE-1 endonuclease inhibition (ND classes).

Read-outs that look alike come from different tables or passages of the source. Where a SMILES comes first, the peptide text is derived from it. The star is where a group is joined. Tos = Cc1ccc(S(=O)(=O)*)cc1; Bn = c1ccc(C*)cc1

The term Ki denotes the equilibrium dissociation constant of an inhibitor or competing ligand from its target. In general, IC50 refers to the concentration at which inhibition is half-maximal. A high value points to lower potency.

Chain of APE-1 activity in T98G cell nuclear lysates (P27695 whole entry, stated change not applied): as the sequence (P27695 whole entry) above

As for `C/C(=N\Nc1cc(C)nc2cc3c(cc12)OCO3)c1cn(C)n(-c2ccccc2)c1=O` [Compound 1], the inhibitory constant (Ki) came out at 0.45 µM in test [1] and 0.18 µM on APE-1 [5] (setting [9]). For the same molecule, the “LD50 of MeLex in the presence of LD10 concentration of inhibitor” value in the test with T98G cells [2] amounted to 2.0 µM; with T98G cells [8], 54 µM. The values for the LD10 concentration with T98G cells [3] and in the test on T98G cells [7] were 0.17 µM and 2.20 µM, respectively. The “level of ARS in combination with MeLex” value in test [4] (80 μM MeLex + 0.25 μM inhibitor, through at least 12 h) is 50 sites/10^5 nucleotides. The same molecule displayed an IC50 at APE-1 [6] of 4.4 µM.

In the case of `COc1cccc(/C=N/Nc2cc(C)nc3cc4c(cc23)OCO4)c1` [Compound 2], the results for the Ki (in test [1]; on APE-1 [5] (setting [9])) were 0.24 µM and 0.22 µM, respectively. This molecule registered a half-inhibitory concentration (IC50) at APE-1 [6] of 10.1 µM.

Consider `Cc1cc(N/N=C/c2ccc([N+](=O)[O-])o2)c2cc3c(cc2n1)OCO3` [Compound 6], for which, at APE-1 [5] (setting [9]), the inhibitory constant (Ki) was 0.64 µM.

`C/C(=N\Nc1cc(C)nc2ccc(C)cc12)c1cn(C)n(-c2ccccc2)c1=O` [Compound 7]: the inhibition constant Ki on APE-1 [5] (setting [9]) stood at 10.9 µM.

`C/C(=N\Nc1cc(C)c2ccccc2n1)c1cn(C)n(-c2ccccc2)c1=O` [Compound 8]: the “effect on ARS” value in test [4] (0.25 μM compound alone) is recorded as “same as background”. On APE-1 [5] (setting [10]), the inhibitory constant (Ki) was over 100 µM. This molecule registered an IC50 against APE-1 [6] of over 100 µM.

For the molecule `C=C(C[N+](=O)[O-])NC(CCCCNc1ccc([N+](=O)[O-])cc1N(O)O)C(=O)O` (stereo not shown) [Compound 9], the inhibition constant Ki at APE-1 [5] (setting [9]) came out at 13 µM.

Regarding `C/C=C/C(=O)NCCCCNC(=O)/C=C/c1ccc([N+](=O)[O-])cc1` [Compound 10], at APE-1 [5] (setting [9]), the inhibition constant (Ki) stood at 17 µM.

Take `COc1ccc(/C(Cc2ccccc2)=N\Nc2ccc([N+](=O)[O-])c([N+](=O)[O-])c2)cc1` [Compound 11]: the Ki at APE-1 [5] (setting [9]) was determined as 6.7 µM.

On to `COc1ccc(C2C3=C(CC(C)(C)CC3=O)Oc3cc4c(cc32)OCO4)c(OC)c1` (stereo not shown) [Compound 12], for which the inhibition constant Ki on APE-1 [5] (setting [9]) came to 32 µM.

For the molecule `N=c1[nH]nc2nc(CC(=O)c3ccccc3[N+](=O)[O-])c(CC(=O)c3ccccc3[N+](=O)[O-])nn12` [Compound 13], the inhibition constant Ki at APE-1 [5] (setting [9]) came to 4.9 µM.

In the case of `O=C(/C=C(/Nc1ccccc1)C(=O)c1ccccc1)c1ccccc1` [Compound 14], on APE-1 [5] (setting [9]), the Ki worked out at 37 µM.

In the case of `O=C(NNc1ccnc2cc(Cl)ccc12)/C(=C/c1ccccc1Cl)NC(=O)c1ccccc1` [Compound 15], the inhibition constant Ki on APE-1 [5] (setting [10]) was over 100 µM.

For the molecule `Nc1ncnc2c1ncn2C1OC(C(=O)NCC(=O)O)C(O)C1O` (stereo not shown) [Compound 16], the inhibition constant (Ki) at APE-1 [5] (setting [10]) was over 100 µM.

As to `CC(N)C(=O)NC1C(CO)OC(n2cnc3c(N)ncnc32)C1O` (stereo not shown) [Compound 17], the Ki on APE-1 [5] (setting [10]) is over 100 µM.

In the case of `O=C(O)CC1(CC(=O)NCCc2c[nH]c3ccccc23)OCCO1` [Compound 18], on APE-1 [5] (setting [10]), the Ki is over 100 µM.

As for `O=C(O)C(Cc1c[nH]c2ccc(O)cc12)NCC1(O)OCC(O)C(O)C1O` (stereo not shown) [Compound 19], on APE-1 [5] (setting [10]), the Ki was over 100 µM.

As for `Cn1c(=N)[nH]c2c(nc(OCc3ccccc3)n2C2OC(O)C(O)C2O)c1=O` (stereo not shown) [Compound 21], the Ki at APE-1 [5] (setting [10]) is over 100 µM.

As to `CC(NC(=O)/C(=C/c1ccccc1)NC(=O)c1ccccc1)c1ccccc1` (stereo not shown) [Compound 22], the inhibitory constant (Ki) on APE-1 [5] (setting [10]) is over 100 µM.

For `Cc1ccc(S(=O)(=O)NC(CSCc2ccccc2)C(=O)NC(Cc2ccc(O)cc2)C(=O)O)cc1` (stereo not shown) [Compound 25] (Tos-Cys(Bn)-Tyr-OH; configuration not given here), at APE-1 [5] (setting [10]), the inhibition constant Ki is over 100 µM.

As to `CCOC(=O)CC/C(=C\NC(=O)c1ccccc1)NC(=O)c1ccccc1` [Compound 26], the Ki on APE-1 [5] (setting [10]) is over 100 µM.

Regarding `Cc1cc2cc3c(cc2n2c(SCC(=O)N4c5ccccc5CCc5ccccc54)nnc12)OCO3` [Compound 28], the inhibition constant (Ki) on APE-1 [5] (setting [10]) was over 100 µM.

`CCc1cc2cc(C)c(C)cc2nc1SCC(=O)N1CCN(C(=O)c2ccco2)CC1` [Compound 29]: the Ki on APE-1 [5] (setting [10]) was over 100 µM.

On to `CC(=O)N1N=C(c2cccc(NS(C)(=O)=O)c2)CC1c1cc2cc(C)c(C)cc2nc1Cl` (stereo not shown) [Compound 30], for which the inhibitory constant (Ki) on APE-1 [5] (setting [10]) is over 100 µM.
